{"source": "PubChem BioAssay (NCI)", "assay_in_all_cases": "NCI anticancer screen, dose series, 48 h", "key": {"[1]": {"test_system": "UACC-257 melanoma"}, "[2]": {"test_system": "RXF 393 renal"}, "[3]": {"test_system": "OVCAR-8 ovarian"}, "[4]": {"test_system": "SK-MEL-2 melanoma"}, "[5]": {"test_system": "MOLT-4 leukemia"}, "[6]": {"test_system": "NCI-H460 lung"}, "[7]": {"test_system": "HCT-15 colon"}, "[8]": {"test_system": "LOX IMVI melanoma"}, "[9]": {"test_system": "SNB-78 CNS"}, "[10]": {"test_system": "SK-OV-3 ovarian"}, "[11]": {"test_system": "OVCAR-4 ovarian"}, "[12]": {"test_system": "DLD-1 colon"}, "[13]": {"test_system": "SK-MEL-28 melanoma"}, "[14]": {"test_system": "SF-539 CNS"}, "[15]": {"test_system": "NCI-H522 lung"}, "[16]": {"test_system": "KM12 colon"}, "[17]": {"test_system": "NCI-H226 lung"}, "[18]": {"test_system": "UO-31 renal"}, "[19]": {"test_system": "LXFL 529 NSCLC"}, "[20]": {"test_system": "IGROV1 ovarian"}, "[21]": {"test_system": "HOP-18 NSCLC"}, "[22]": {"test_system": "SNB-75 CNS"}, "[23]": {"test_system": "OVCAR-3 ovarian"}, "[24]": {"test_system": "A549 NSCLC"}, "[25]": {"test_system": "DMS 114 small cell lung"}, "[26]": {"test_system": "M19-MEL melanoma"}, "[27]": {"test_system": "NCI-H23 lung"}, "[28]": {"test_system": "HCT-116 colon"}, "[29]": {"test_system": "SNB-19 CNS"}, "[30]": {"test_system": "MALME-3M melanoma"}, "[31]": {"test_system": "SF-295 CNS"}, "[32]": {"test_system": "UACC-62 melanoma"}, "[33]": {"test_system": "HT29 colon"}, "[34]": {"test_system": "SN12C renal"}, "[35]": {"test_system": "TK-10 renal"}, "[36]": {"test_system": "SF-268 CNS"}, "[37]": {"test_system": "SK-MEL-5 melanoma"}, "[38]": {"test_system": "ACHN renal"}, "[39]": {"test_system": "DMS 273 small cell lung"}, "[40]": {"test_system": "NCI/ADR-RES ovarian"}, "[41]": {"test_system": "MDA-MB-435"}, "[42]": {"test_system": "DU-145 prostate"}, "[43]": {"test_system": "SW-620 colon"}, "[44]": {"test_system": "OVCAR-5 ovarian"}, "[45]": {"test_system": "M14 melanoma"}, "[46]": {"test_system": "HS 578T breast"}, "[47]": {"test_system": "A498 renal"}, "[48]": {"test_system": "MDA-MB-231 breast"}, "[49]": {"test_system": "RPMI-8226 leukemia"}, "[50]": {"test_system": "BT-549 breast"}, "[51]": {"test_system": "HOP-92 NSCLC"}, "[52]": {"test_system": "U251 CNS"}, "[53]": {"test_system": "MCF7 breast"}, "[54]": {"test_system": "CCRF-CEM leukemia"}, "[55]": {"test_system": "K-562 leukemia"}, "[56]": {"test_system": "EKVX NSCLC"}, "[57]": {"test_system": "HL-60(TB) leukemia"}, "[58]": {"test_system": "PC-3 prostate"}, "[59]": {"test_system": "MDA-N"}, "[60]": {"test_system": "HCC-2998 colon"}, "[61]": {"test_system": "T-47D breast"}, "[62]": {"test_system": "SR leukemia"}, "[63]": {"test_system": "HOP-62 NSCLC"}, "[64]": {"test_system": "786-0 renal"}, "[65]": {"test_system": "COLO 205 colon"}, "[66]": {"test_system": "CAKI-1 renal"}}, "note": "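These data come from cells grown in 96-well plates and exposed to compound for 48 hours at five concentrations. The concentration for full growth arrest is given as TGI.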"}
{"smiles": "CC(=O)Oc1cc(OC(C)=O)c2c(=O)c3ccccc3n(C)c2c1", "values": [{"measurement": "TGI", "setting": "[1]", "value": 84.1, "unit": "µM"}, {"measurement": "TGI", "setting": "[2]", "value": 75.2, "unit": "µM"}, {"measurement": "TGI", "setting": "[3]", "value": 64.4, "unit": "µM"}, {"measurement": "TGI", "setting": "[4]", "value": 97.1, "unit": "µM"}, {"measurement": "TGI", "setting": "[5]", "value": "> 100", "unit": "µM"}, {"measurement": "TGI", "setting": "[6]", "value": 67.5, "unit": "µM"}, {"measurement": "TGI", "setting": "[7]", "value": "> 100", "unit": "µM"}, {"measurement": "TGI", "setting": "[8]", "value": 28.1, "unit": "µM"}, {"measurement": "TGI", "setting": "[9]", "value": 84.3, "unit": "µM"}, {"measurement": "TGI", "setting": "[10]", "value": 59.8, "unit": "µM"}, {"measurement": "TGI", "setting": "[11]", "value": "> 100", "unit": "µM"}, {"measurement": "TGI", "setting": "[12]", "value": 91.3, "unit": "µM"}, {"measurement": "TGI", "setting": "[13]", "value": 59.9, "unit": "µM"}, {"measurement": "TGI", "setting": "[14]", "value": 42.2, "unit": "µM"}, {"measurement": "TGI", "setting": "[15]", "value": 52.8, "unit": "µM"}, {"measurement": "TGI", "setting": "[16]", "value": "> 100", "unit": "µM"}, {"measurement": "TGI", "setting": "[17]", "value": 40.5, "unit": "µM"}, {"measurement": "TGI", "setting": "[18]", "value": 53.8, "unit": "µM"}, {"measurement": "TGI", "setting": "[19]", "value": "> 100", "unit": "µM"}, {"measurement": "TGI", "setting": "[20]", "value": 68.4, "unit": "µM"}, {"measurement": "TGI", "setting": "[21]", "value": 57.1, "unit": "µM"}, {"measurement": "TGI", "setting": "[22]", "value": 76.3, "unit": "µM"}, {"measurement": "TGI", "setting": "[23]", "value": "> 100", "unit": "µM"}, {"measurement": "TGI", "setting": "[24]", "value": "> 100", "unit": "µM"}, {"measurement": "TGI", "setting": "[25]", "value": 96.5, "unit": "µM"}, {"measurement": "TGI", "setting": "[26]", "value": 52.2, "unit": "µM"}, {"measurement": "TGI", "setting": "[27]", "value": 77.6, "unit": "µM"}, {"measurement": "TGI", "setting": "[28]", "value": 74.7, "unit": "µM"}, {"measurement": "TGI", "setting": "[29]", "value": "> 100", "unit": "µM"}, {"measurement": "TGI", "setting": "[30]", "value": 48.8, "unit": "µM"}, {"measurement": "TGI", "setting": "[31]", "value": 44.2, "unit": "µM"}, {"measurement": "TGI", "setting": "[32]", "value": "> 100", "unit": "µM"}, {"measurement": "TGI", "setting": "[33]", "value": 64.5, "unit": "µM"}, {"measurement": "TGI", "setting": "[34]", "value": 88.2, "unit": "µM"}, {"measurement": "TGI", "setting": "[35]", "value": "> 100", "unit": "µM"}, {"measurement": "TGI", "setting": "[36]", "value": 76.5, "unit": "µM"}, {"measurement": "TGI", "setting": "[37]", "value": 29.7, "unit": "µM"}, {"measurement": "TGI", "setting": "[38]", "value": 65.1, "unit": "µM"}, {"measurement": "TGI", "setting": "[39]", "value": "> 100", "unit": "µM"}]}
{"smiles": "O=C(c1ccc(Cl)cc1Cl)N(Cc1cccnc1)C(=S)N(Cc1cccnc1)C(=O)c1ccc(Cl)cc1Cl", "values": [{"measurement": "TGI", "setting": "[1]", "value": 23.5, "unit": "µM"}, {"measurement": "TGI", "setting": "[2]", "value": 33.2, "unit": "µM"}, {"measurement": "TGI", "setting": "[40]", "value": 76, "unit": "µM"}, {"measurement": "TGI", "setting": "[3]", "value": 13.5, "unit": "µM"}, {"measurement": "TGI", "setting": "[4]", "value": 13.7, "unit": "µM"}, {"measurement": "TGI", "setting": "[41]", "value": 66, "unit": "µM"}, {"measurement": "TGI", "setting": "[5]", "value": "> 100", "unit": "µM"}, {"measurement": "TGI", "setting": "[6]", "value": 39.2, "unit": "µM"}, {"measurement": "TGI", "setting": "[7]", "value": 15.4, "unit": "µM"}, {"measurement": "TGI", "setting": "[8]", "value": 16.7, "unit": "µM"}, {"measurement": "TGI", "setting": "[42]", "value": 13, "unit": "µM"}, {"measurement": "TGI", "setting": "[10]", "value": 37.1, "unit": "µM"}, {"measurement": "TGI", "setting": "[43]", "value": 80.5, "unit": "µM"}, {"measurement": "TGI", "setting": "[11]", "value": 7.99, "unit": "µM"}, {"measurement": "TGI", "setting": "[44]", "value": 23.2, "unit": "µM"}, {"measurement": "TGI", "setting": "[45]", "value": 9.26, "unit": "µM"}, {"measurement": "TGI", "setting": "[13]", "value": 33.7, "unit": "µM"}, {"measurement": "TGI", "setting": "[14]", "value": 4.43, "unit": "µM"}, {"measurement": "TGI", "setting": "[15]", "value": 9.8, "unit": "µM"}, {"measurement": "TGI", "setting": "[46]", "value": 66.4, "unit": "µM"}, {"measurement": "TGI", "setting": "[47]", "value": 24.4, "unit": "µM"}, {"measurement": "TGI", "setting": "[16]", "value": 18.8, "unit": "µM"}, {"measurement": "TGI", "setting": "[17]", "value": 38.3, "unit": "µM"}, {"measurement": "TGI", "setting": "[48]", "value": 6.53, "unit": "µM"}, {"measurement": "TGI", "setting": "[18]", "value": 12.9, "unit": "µM"}, {"measurement": "TGI", "setting": "[49]", "value": "> 100", "unit": "µM"}, {"measurement": "TGI", "setting": "[50]", "value": 14.8, "unit": "µM"}, {"measurement": "TGI", "setting": "[51]", "value": 12, "unit": "µM"}, {"measurement": "TGI", "setting": "[52]", "value": 9.88, "unit": "µM"}, {"measurement": "TGI", "setting": "[22]", "value": 14, "unit": "µM"}, {"measurement": "TGI", "setting": "[23]", "value": 10.1, "unit": "µM"}, {"measurement": "TGI", "setting": "[53]", "value": 12.3, "unit": "µM"}, {"measurement": "TGI", "setting": "[24]", "value": 38, "unit": "µM"}, {"measurement": "TGI", "setting": "[27]", "value": 44.6, "unit": "µM"}, {"measurement": "TGI", "setting": "[28]", "value": 6.19, "unit": "µM"}, {"measurement": "TGI", "setting": "[54]", "value": "> 100", "unit": "µM"}, {"measurement": "TGI", "setting": "[55]", "value": "> 100", "unit": "µM"}, {"measurement": "TGI", "setting": "[29]", "value": 25.1, "unit": "µM"}, {"measurement": "TGI", "setting": "[56]", "value": 30.2, "unit": "µM"}, {"measurement": "TGI", "setting": "[57]", "value": 15.3, "unit": "µM"}, {"measurement": "TGI", "setting": "[58]", "value": 7.55, "unit": "µM"}, {"measurement": "TGI", "setting": "[30]", "value": 36.9, "unit": "µM"}, {"measurement": "TGI", "setting": "[31]", "value": 41.5, "unit": "µM"}, {"measurement": "TGI", "setting": "[59]", "value": 6.76, "unit": "µM"}, {"measurement": "TGI", "setting": "[32]", "value": 23.8, "unit": "µM"}, {"measurement": "TGI", "setting": "[60]", "value": 8.97, "unit": "µM"}, {"measurement": "TGI", "setting": "[61]", "value": 45.7, "unit": "µM"}, {"measurement": "TGI", "setting": "[33]", "value": 5.52, "unit": "µM"}, {"measurement": "TGI", "setting": "[62]", "value": "> 100", "unit": "µM"}, {"measurement": "TGI", "setting": "[34]", "value": 18.3, "unit": "µM"}, {"measurement": "TGI", "setting": "[63]", "value": 7.12, "unit": "µM"}, {"measurement": "TGI", "setting": "[64]", "value": 5.34, "unit": "µM"}, {"measurement": "TGI", "setting": "[35]", "value": 8.7, "unit": "µM"}, {"measurement": "TGI", "setting": "[65]", "value": 4.09, "unit": "µM"}, {"measurement": "TGI", "setting": "[66]", "value": 34.4, "unit": "µM"}, {"measurement": "TGI", "setting": "[36]", "value": 20.4, "unit": "µM"}, {"measurement": "TGI", "setting": "[37]", "value": 11.9, "unit": "µM"}, {"measurement": "TGI", "setting": "[38]", "value": 23.5, "unit": "µM"}]}
